The results in this text go back to ChEMBL document CHEMBL1136079, “Molecular design, synthesis, and structure-Activity relationships leading to the potent and selective p56(lck) inhibitor BMS-243117” (Bioorg Med Chem Lett, 2003).

What is called IC50 is the point on the concentration scale where inhibition reaches its midpoint. A low value points to inhibition by little substance.

In the first test the target is Tyrosine-protein kinase Lck (Homo sapiens, UniProt P06239). In words: In vitro inhibition of phosphorylation of an exogenous substrate by human p56 Lck tyrosine kinase expressed as a His-tagged protein in insect cells using a baculovirus expression system.
Sequence of Tyrosine-protein kinase Lck (P06239 whole entry): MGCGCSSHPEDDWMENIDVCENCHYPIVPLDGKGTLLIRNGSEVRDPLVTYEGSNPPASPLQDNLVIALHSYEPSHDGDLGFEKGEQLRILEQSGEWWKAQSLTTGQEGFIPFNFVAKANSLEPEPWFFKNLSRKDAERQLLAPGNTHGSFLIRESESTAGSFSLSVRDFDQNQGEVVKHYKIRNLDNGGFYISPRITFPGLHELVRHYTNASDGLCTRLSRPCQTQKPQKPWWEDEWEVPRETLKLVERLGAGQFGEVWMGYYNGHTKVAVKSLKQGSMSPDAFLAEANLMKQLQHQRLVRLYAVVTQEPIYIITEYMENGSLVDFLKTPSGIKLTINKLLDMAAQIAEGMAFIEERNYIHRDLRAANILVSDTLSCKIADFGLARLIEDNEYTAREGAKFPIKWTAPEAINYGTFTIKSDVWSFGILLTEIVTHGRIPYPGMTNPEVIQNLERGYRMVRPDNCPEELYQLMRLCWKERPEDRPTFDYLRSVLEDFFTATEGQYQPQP
Settings: not given
`CC(=O)c1cccc(O)c1NC(=O)c1ccc2nc(NC(=O)OC(C)(C)C)sc2c1` displayed an IC50 above 12500 nM. Take `Cc1cc(C)c(NC(=O)c2ccc3nc(NC(=O)NC4CC4)sc3c2)c(C)c1`: it took 300 nM to reach half-maximal inhibition (IC50). `Cc1cc(C)c(NC(=O)c2ccc3sc(NC(=O)OC(C)(C)C)nc3c2)c(C)c1` showed an IC50 above 12500 nM. On the same count and under the same terms, next, `Cc1cccc(Br)c1NC(=O)c1ccc2nc(NC(=O)OC(C)(C)C)sc2c1`: 4270 nM; `Cc1cc(C)c(NC(=O)c2ccc3nc(NC(=O)OC(C)(C)C)sc3c2)c(C)c1`: 290 nM.

The compound `Cc1cccc(C)c1NC(=O)c1ccc2nc(NC(=O)C3CC3)sc2c1` showed a 50% inhibitory concentration (IC50) of 15 nM. Same read-out and setting: then `Cc1cc(C)c(NC(=O)c2ccc3nc(NC(=O)C(C)C)sc3c2)c(C)c1`, with 700 nM. As for `Cc1cccc(Cl)c1NC(=O)c1ccc2nc(NC(=O)Nc3ccc(F)cc3)sc2c1`, the IC50 worked out at 123 nM. On the same count and under the same terms, next, `Cc1cc(Br)cc(C)c1NC(=O)c1ccc2nc(NC(=O)OC(C)(C)C)sc2c1`: 110 nM.

Turning to `Cc1cccc(CCO)c1NC(=O)c1ccc2nc(NC(=O)OC(C)(C)C)sc2c1`, the IC50 was above 12500 nM.

Turning to `Cc1cccc(Cl)c1NC(=O)c1ccc2nc(NC(=O)NC3CCCC3)sc2c1`, the half-maximal inhibitory concentration (IC50) was found to be 45 nM. Consider `COC(=O)c1cc(C)c(NC(=O)c2ccc3nc(NC(=O)OC(C)(C)C)sc3c2)c(C)c1`, for which the IC50 stood at 3120 nM. Still for that read-out and setting: then `Cc1cccc(Cl)c1NC(=O)c1ccc2nc(NC(=O)NCCN(C)C)sc2c1`, with 30 nM; and `Cc1cc(C)c(NC(=O)c2ccc3nc(NC(=O)c4ccccc4)sc3c2)c(C)c1`, with above 12500 nM. `Cc1cccc(Cl)c1NC(=O)c1ccc2nc(NC(=O)C3CC3)sc2c1` came in with an IC50 of 9 nM. Still for that read-out and setting: then `CCC(C)(C)NC(=O)Nc1nc2ccc(C(=O)Nc3c(C)cccc3C)cc2s1`, with 80 nM; and `Cc1cccc(Cl)c1NC(=O)c1ccc2nc(NC(=O)C3CCC3)sc2c1`, with 666 nM.

As for `Cc1cccc(C)c1NC(=O)c1ccc2nc(NC(=O)C3CC3C)sc2c1` (configuration not stated), the IC50 amounted to 11 nM.

In turn, `Cc1cc(C)c(NC(=O)c2sc(N)nc2C)c(C)c1` showed an IC50 of 3200 nM. The same measure, in the same setting: next, `Cc1cc(C)c(NC(=O)c2ccc3nc(NC(=O)OC(C)(C)C)sc3c2)c(Br)c1`: 200 nM. `Cc1cc(C)c(NC(=O)c2cccc3nc(NC(=O)OC(C)(C)C)sc23)c(C)c1` registered an IC50 above 12500 nM. The same measure, in the same setting: then `Cc1cc(C)c(NC(=O)c2ccc3nc(N)oc3c2)c(C)c1`, with 23000 nM; and `Cc1cc(C)c(NC(=O)c2cccc3sc(NC(=O)OC(C)(C)C)nc23)c(C)c1`, with above 12500 nM; and `Cc1cc(C)c(NC(=O)c2ccc3nc(NC(=O)OC(C)(C)C)sc3c2)c(Br)c1C`, with above 12500 nM. `Cc1cc(C)c(NC(=O)c2ccc3nc(NC(=O)OC(C)(C)C)sc3n2)c(C)c1` returned an IC50 above 12500 nM. The same measure, in the same setting: then `Cc1cc(C)c(NC(=O)c2ccc3nc(N)sc3n2)c(C)c1`, with above 12500 nM; and `Cc1cccc(C)c1NC(=O)c1ccc2nc(NC(=O)C(C)C)sc2c1`, with 1800 nM. Still for that read-out and setting: next, `Cc1cc(Br)ccc1NC(=O)c1ccc2nc(NC(=O)OC(C)(C)C)sc2c1`: above 12500 nM; `Cc1cc(C)c(NC(=O)c2cc(C)c3nc(NC(=O)OC(C)(C)C)sc3c2)c(C)c1`: 5600 nM.

`Cc1cc(CO)cc(C)c1NC(=O)c1ccc2nc(NC(=O)OC(C)(C)C)sc2c1` gave an IC50 of 310 nM.

Regarding `Cc1cccc(C)c1NC(=O)c1ccc2nc(NC(=O)NC(C)(C)C)sc2c1`, the 50% inhibitory concentration (IC50) was 100 nM. `Cc1cccc(Cl)c1NC(=O)c1ccc2nc(NC(=O)NC(C)(C)C)sc2c1` registered an IC50 of 4 nM. Still for that read-out and setting: next, `Cc1cc(C)c(NC(=O)c2ccc3nc(NC(=O)C4CC4)sc3c2)c(C)c1`: 20 nM; `Cc1cccc(Cl)c1NC(=O)c1ccc2nc(NC(=O)Nc3ccccn3)sc2c1`: 2010 nM. For `Cc1cc(C)c(NC(=O)c2ccc3nc(NC(=O)OC(C)(C)C)oc3c2)c(C)c1`, the IC50 came to 7250 nM.

The compound `CCC(C)(C)NC(=O)Nc1nc2ccc(C(=O)Nc3c(C)cccc3Cl)cc2s1` gave an IC50 of 55 nM. As for `Cc1cc(C)c(NC(=O)c2ccc3nc(NC(=O)NCc4ccccc4)sc3c2)c(C)c1`, the half-inhibitory concentration (IC50) came out at 1730 nM.

Compound `Cc1cc(C)c(NC(=O)c2ccc3nc(NC(=O)NC(C)(C)C)sc3c2)c(C)c1` showed an IC50 of 70 nM. Same read-out and setting: next, `COc1cc(C(=O)Nc2c(C)cc(C)cc2C)nc2sc(NC(=O)OC(C)(C)C)nc12`: above 12500 nM. Compound `Cc1cccc(Cl)c1NC(=O)c1ccc2nc(NC(=O)NCc3ccc(F)cc3)sc2c1` returned an IC50 of 87 nM. In turn, `Cc1cccc(Cl)c1NC(=O)c1ccc2nc(NC(=O)Nc3ncccn3)sc2c1` showed a half-inhibitory concentration (IC50) above 3130 nM. On the same count and under the same terms, next, `Cc1cccc(Cl)c1NC(=O)c1ccc2nc(NC(=O)NC3CC3)sc2c1`: 90 nM; `Cc1cccc(Cl)c1NC(=O)c1ccc2nc(NC(=O)C3CCCO3)sc2c1` (configuration not stated): 272 nM. The same measure, in the same setting: then `Cc1cccc(Cl)c1NC(=O)c1ccc2nc(NC(=O)NC3CC(C)(C)NC(C)(C)C3)sc2c1`, with 4 nM; and `Cc1cccc(Cl)c1NC(=O)c1ccc2nc(NC(=O)OC(C)(C)C)sc2c1`, with 70 nM; and `Cc1cc(C)c(NC(=O)c2ccc3nc(N)sc3c2)c(C)c1`, with 15000 nM. Still for that read-out and setting: next, `Cc1cccc(C)c1NC(=O)c1ccc2nc(NC(=O)OC(C)(C)C)sc2c1`: 90 nM; `Cc1cc(C)c(NC(=O)c2ccc3nc(NC(=O)OC(C)(C)C)sc3c2)c(C)c1Br`: above 12500 nM; `Cc1ccc(C(C)C)c(C)c1NC(=O)c1ccc2nc(NC(=O)OC(C)(C)C)sc2c1`: above 12500 nM. Compound `Cc1cc(C)c(NC(=O)c2ccc3nc(NC(=O)OC(C)(C)C)sc3c2Cl)c(C)c1` had a 50% inhibitory concentration (IC50) of 4400 nM.

In the case of `Cc1cc(C)c(NC(=O)c2ccc3[nH]c(NC(=O)OC(C)(C)C)nc3c2)c(C)c1`, the IC50 worked out at 3230 nM. On the same count and under the same terms, then `Cc1ccccc1CC(=O)Nc1nc2ccc(C(=O)Nc3c(C)cccc3Cl)cc2s1`, with 565 nM; and `Cc1cccc(C)c1NC(=O)c1ccc2nc(NC(=O)NC3CC3)sc2c1`, with 90 nM; and `Cc1cc(C)c(NC(=O)c2cc3sc(NC(=O)OC(C)(C)C)nc3cc2Cl)c(C)c1`, with above 12500 nM.

The compound `CCCCNC(=O)Nc1nc2ccc(C(=O)Nc3c(C)cc(C)cc3C)cc2s1` returned an IC50 of 330 nM. Same read-out and setting: then `Cc1cccc(Cl)c1NC(=O)c1ccc2nc(NC(=O)NCc3ccco3)sc2c1`, with 39 nM; and `Cc1cccc(Cl)c1NC(=O)c1ccc2nc(NC(=O)NCCC3CCCN3C)sc2c1` (configuration not stated), with 7 nM; and `COc1cccc(OC)c1NC(=O)c1ccc2nc(NC(=O)OC(C)(C)C)sc2c1`, with above 12500 nM. The same measure, in the same setting: then `Cc1cc(C)c(NC(=O)c2ccc3[nH]c(N)nc3c2)c(C)c1`, with above 12500 nM; and `Cc1cc(C)c(NC(=O)c2sc(NC(=O)OC(C)(C)C)nc2C)c(C)c1`, with 3000 nM.

`CCC(NC(=O)Nc1nc2ccc(C(=O)Nc3c(C)cccc3Cl)cc2s1)c1ccccc1` (configuration not stated): the IC50 came to 19 nM.

System in the next test: not listed separately
In words: Inhibition of anti-CD3, anti-CD28 induced PBL T-cell proliferation. The conditions noted are these: Homo sapiens.
Take `Cc1cccc(Cl)c1NC(=O)c1ccc2nc(NC(=O)NC(C)(C)C)sc2c1`: the IC50 was 1100 nM.

Regarding `Cc1cccc(Cl)c1NC(=O)c1ccc2nc(NC(=O)NC3CC(C)(C)NC(C)(C)C3)sc2c1`, the midpoint of inhibition, the IC50, lay at 2800 nM. `Cc1cccc(Cl)c1NC(=O)c1ccc2nc(NC(=O)C3CC3C)sc2c1` (configuration not stated) came in with an IC50 of 1580 nM.

On to `Cc1cccc(Cl)c1NC(=O)c1ccc2nc(NC(=O)C3CC3CN(C)C)sc2c1` (trans isomer), for which the IC50 was 3530 nM. The same measure, in the same setting: next, `Cc1cccc(Cl)c1NC(=O)c1ccc2nc(NC(=O)NCCC3CCCN3C)sc2c1` (configuration not stated): 960 nM; `Cc1cccc(Cl)c1NC(=O)c1ccc2nc(NC(=O)C3CC3CO)sc2c1` (trans isomer): 1450 nM.
